Assay results from PubChem BioAssay (NCI).
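Step 1: Grow cells in 96-well plates. Step 2: Expose to compound for 48 hours at 5 concentrations. Step 3: Interpolate endpoints linearly; if unreached, use highest concentration. Definition used: TGI = concentration required for complete inhibition of growth.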

Key:
Assay in all cases: NCI tumour cell line growth inhibition, 48 h
786-0 renal = tested on: 786-0 renal
A549 NSCLC = tested on: A549 NSCLC
ACHN renal = tested on: ACHN renal
CAKI-1 renal = tested on: CAKI-1 renal
CCRF-CEM leukemia = tested on: CCRF-CEM leukemia
COLO 205 colon = tested on: COLO 205 colon
DLD-1 colon = tested on: DLD-1 colon
DMS 273 small cell lung = tested on: DMS 273 small cell lung
EKVX NSCLC = tested on: EKVX NSCLC
HCT-116 colon = tested on: HCT-116 colon
HCT-15 colon = tested on: HCT-15 colon
HL-60(TB) leukemia = tested on: HL-60(TB) leukemia
HOP-18 NSCLC = tested on: HOP-18 NSCLC
HOP-62 NSCLC = tested on: HOP-62 NSCLC
HOP-92 NSCLC = tested on: HOP-92 NSCLC
HT29 colon = tested on: HT29 colon
IGROV1 ovarian = tested on: IGROV1 ovarian
K-562 leukemia = tested on: K-562 leukemia
KM20L2 colon = tested on: KM20L2 colon
LOX IMVI melanoma = tested on: LOX IMVI melanoma
M14 melanoma = tested on: M14 melanoma
M19-MEL melanoma = tested on: M19-MEL melanoma
MALME-3M melanoma = tested on: MALME-3M melanoma
MOLT-4 leukemia = tested on: MOLT-4 leukemia
NCI-H23 lung = tested on: NCI-H23 lung
NCI-H460 lung = tested on: NCI-H460 lung
OVCAR-3 ovarian = tested on: OVCAR-3 ovarian
OVCAR-4 ovarian = tested on: OVCAR-4 ovarian
OVCAR-5 ovarian = tested on: OVCAR-5 ovarian
OVCAR-8 ovarian = tested on: OVCAR-8 ovarian
RPMI-8226 leukemia = tested on: RPMI-8226 leukemia
RXF 393 renal = tested on: RXF 393 renal
RXF-631 renal = tested on: RXF-631 renal
SF-295 CNS = tested on: SF-295 CNS
SK-MEL-28 melanoma = tested on: SK-MEL-28 melanoma
SK-MEL-5 melanoma = tested on: SK-MEL-5 melanoma
SK-OV-3 ovarian = tested on: SK-OV-3 ovarian
SN12C renal = tested on: SN12C renal
SNB-19 CNS = tested on: SNB-19 CNS
SNB-75 CNS = tested on: SNB-75 CNS
SNB-78 CNS = tested on: SNB-78 CNS
SW-620 colon = tested on: SW-620 colon
TK-10 renal = tested on: TK-10 renal
U251 CNS = tested on: U251 CNS
UACC-257 melanoma = tested on: UACC-257 melanoma
UACC-62 melanoma = tested on: UACC-62 melanoma
UO-31 renal = tested on: UO-31 renal
XF 498 CNS = tested on: XF 498 CNS
A498 renal = tested on: A498 renal
DMS 114 small cell lung = tested on: DMS 114 small cell lung
HCC-2998 colon = tested on: HCC-2998 colon
KM12 colon = tested on: KM12 colon
LXFL 529 NSCLC = tested on: LXFL 529 NSCLC
SF-268 CNS = tested on: SF-268 CNS
SF-539 CNS = tested on: SF-539 CNS
SK-MEL-2 melanoma = tested on: SK-MEL-2 melanoma
SR leukemia = tested on: SR leukemia
NCI-H226 lung = tested on: NCI-H226 lung
NCI-H522 lung = tested on: NCI-H522 lung

COc1ccc(C2=C(Cl)c3cc(OC)c(OC)cc3C2Cl)cc1OC (stereo not given) showed a TGI (786-0 renal) of 41.5 µM, a TGI (A549 NSCLC) of 42 µM and a TGI (ACHN renal) of 38.3 µM. For the same molecule, the TGI (CAKI-1 renal) was 35.2 µM, the TGI (CCRF-CEM leukemia) was 28.9 µM and the TGI (COLO 205 colon) was 32.5 µM. The TGI (DLD-1 colon) was 34.9 µM, the TGI (DMS 273 small cell lung) was 30.4 µM and the TGI (EKVX NSCLC) was 50.5 µM. It also gave a TGI (HCT-116 colon) of 30.3 µM, a TGI (HCT-15 colon) of 55.6 µM and a TGI (HL-60(TB) leukemia) of 35.3 µM. The TGI (HOP-18 NSCLC) was 55.6 µM, the TGI (HOP-62 NSCLC) was 36.6 µM and the TGI (HOP-92 NSCLC) was 46.1 µM. For the same molecule, the TGI (HT29 colon) was 29.8 µM, the TGI (IGROV1 ovarian) was 44.2 µM and the TGI (K-562 leukemia) was 48.6 µM. For the same molecule, the TGI (KM20L2 colon) was 29.5 µM, the TGI (LOX IMVI melanoma) was 31.1 µM and the TGI (M14 melanoma) was 34.9 µM. It also gave a TGI (M19-MEL melanoma) of 31.7 µM, a TGI (MALME-3M melanoma) of 40.6 µM and a TGI (MOLT-4 leukemia) of 15.4 µM. For the same molecule, the TGI (NCI-H23 lung) was 38.2 µM, the TGI (NCI-H460 lung) was 34.8 µM and the TGI (OVCAR-3 ovarian) was 28.4 µM. For the same molecule, the TGI (OVCAR-4 ovarian) was 47.5 µM, the TGI (OVCAR-5 ovarian) was 30.2 µM and the TGI (OVCAR-8 ovarian) was 39 µM. The TGI (RPMI-8226 leukemia) was 27.7 µM, the TGI (RXF 393 renal) was 35.3 µM and the TGI (RXF-631 renal) was 44.4 µM. For the same molecule, the TGI (SF-295 CNS) was 33.8 µM, the TGI (SK-MEL-28 melanoma) was 34.5 µM and the TGI (SK-MEL-5 melanoma) was 28.5 µM. It also gave a TGI (SK-OV-3 ovarian) of 53.9 µM, a TGI (SN12C renal) of 38.4 µM and a TGI (SNB-19 CNS) of 32.1 µM. The TGI (SNB-75 CNS) was 33.4 µM, the TGI (SNB-78 CNS) was 75.5 µM and the TGI (SW-620 colon) was 34.5 µM. It also gave a TGI (TK-10 renal) of 46.3 µM, a TGI (U251 CNS) of 29 µM and a TGI (UACC-257 melanoma) of 32 µM. It also gave a TGI (UACC-62 melanoma) of 31 µM, a TGI (UO-31 renal) of 31.3 µM and a TGI (XF 498 CNS) of 29.4 µM.
c1ccc(SC(CCCCC(Sc2ccccc2)Sc2ccccc2)Sc2ccccc2)cc1 gave a TGI (786-0 renal) of over 100 µM, a TGI (A498 renal) of over 100 µM and a TGI (A549 NSCLC) of over 100 µM. For the same molecule, the TGI (ACHN renal) was over 100 µM, the TGI (CAKI-1 renal) was over 100 µM and the TGI (CCRF-CEM leukemia) was over 100 µM. It also gave a TGI (COLO 205 colon) of over 100 µM, a TGI (DLD-1 colon) of over 100 µM and a TGI (DMS 114 small cell lung) of over 100 µM. It also gave a TGI (DMS 273 small cell lung) of over 100 µM, a TGI (EKVX NSCLC) of over 100 µM and a TGI (HCC-2998 colon) of over 100 µM. It also gave a TGI (HCT-116 colon) of over 100 µM, a TGI (HCT-15 colon) of over 100 µM and a TGI (HL-60(TB) leukemia) of over 100 µM. The TGI (HOP-62 NSCLC) was over 100 µM, the TGI (HOP-92 NSCLC) was over 100 µM and the TGI (K-562 leukemia) was over 100 µM. It also gave a TGI (KM12 colon) of over 100 µM, a TGI (KM20L2 colon) of over 100 µM and a TGI (LOX IMVI melanoma) of over 100 µM. The TGI (LXFL 529 NSCLC) was over 100 µM, the TGI (M14 melanoma) was over 100 µM and the TGI (M19-MEL melanoma) was over 100 µM. It also gave a TGI (MOLT-4 leukemia) of over 100 µM, a TGI (NCI-H23 lung) of over 100 µM and a TGI (NCI-H460 lung) of over 100 µM. For the same molecule, the TGI (OVCAR-3 ovarian) was over 100 µM, the TGI (OVCAR-4 ovarian) was over 100 µM and the TGI (OVCAR-8 ovarian) was over 100 µM. It also gave a TGI (RPMI-8226 leukemia) of over 100 µM, a TGI (RXF 393 renal) of over 100 µM and a TGI (RXF-631 renal) of over 100 µM. It also gave a TGI (SF-268 CNS) of over 100 µM, a TGI (SF-295 CNS) of over 100 µM and a TGI (SF-539 CNS) of over 100 µM. For the same molecule, the TGI (SK-MEL-2 melanoma) was over 100 µM, the TGI (SK-MEL-28 melanoma) was over 100 µM and the TGI (SK-MEL-5 melanoma) was over 100 µM. For the same molecule, the TGI (SK-OV-3 ovarian) was over 100 µM, the TGI (SN12C renal) was over 100 µM and the TGI (SNB-19 CNS) was over 100 µM. It also gave a TGI (SNB-75 CNS) of over 100 µM, a TGI (SNB-78 CNS) of over 100 µM and a TGI (SR leukemia) of over 100 µM. For the same molecule, the TGI (SW-620 colon) was over 100 µM, the TGI (TK-10 renal) was over 100 µM and the TGI (U251 CNS) was over 100 µM. It also gave a TGI (UACC-257 melanoma) of over 100 µM, a TGI (UACC-62 melanoma) of over 100 µM and a TGI (UO-31 renal) of over 100 µM. The TGI (XF 498 CNS) was over 100 µM.
CN(C)c1ccc(C=C2C(=O)OC(C)(C)OC2=O)cc1Br showed a TGI (786-0 renal) of over 100 µM, a TGI (A549 NSCLC) of over 100 µM and a TGI (ACHN renal) of over 100 µM. For the same molecule, the TGI (CAKI-1 renal) was over 100 µM, the TGI (CCRF-CEM leukemia) was over 100 µM and the TGI (COLO 205 colon) was over 100 µM. It also gave a TGI (DLD-1 colon) of over 100 µM, a TGI (DMS 114 small cell lung) of over 100 µM and a TGI (DMS 273 small cell lung) of over 100 µM. It also gave a TGI (EKVX NSCLC) of over 100 µM, a TGI (HCC-2998 colon) of over 100 µM and a TGI (HCT-116 colon) of over 100 µM. The TGI (HL-60(TB) leukemia) was over 100 µM, the TGI (HOP-18 NSCLC) was over 100 µM and the TGI (HOP-62 NSCLC) was over 100 µM. The TGI (HOP-92 NSCLC) was over 100 µM, the TGI (HT29 colon) was over 100 µM and the TGI (K-562 leukemia) was over 100 µM. It also gave a TGI (KM12 colon) of over 100 µM, a TGI (KM20L2 colon) of over 100 µM and a TGI (LOX IMVI melanoma) of over 100 µM. For the same molecule, the TGI (LXFL 529 NSCLC) was over 100 µM, the TGI (M14 melanoma) was over 100 µM and the TGI (M19-MEL melanoma) was over 100 µM. It also gave a TGI (MALME-3M melanoma) of over 100 µM, a TGI (MOLT-4 leukemia) of over 100 µM and a TGI (NCI-H226 lung) of over 100 µM. For the same molecule, the TGI (NCI-H23 lung) was over 100 µM, the TGI (NCI-H460 lung) was over 100 µM and the TGI (NCI-H522 lung) was over 100 µM. It also gave a TGI (OVCAR-3 ovarian) of over 100 µM, a TGI (OVCAR-4 ovarian) of over 100 µM and a TGI (OVCAR-5 ovarian) of over 100 µM. For the same molecule, the TGI (OVCAR-8 ovarian) was over 100 µM, the TGI (RPMI-8226 leukemia) was over 100 µM and the TGI (RXF 393 renal) was over 100 µM. It also gave a TGI (RXF-631 renal) of over 100 µM, a TGI (SF-268 CNS) of over 100 µM and a TGI (SF-295 CNS) of over 100 µM. For the same molecule, the TGI (SF-539 CNS) was over 100 µM, the TGI (SK-MEL-2 melanoma) was over 100 µM and the TGI (SK-MEL-28 melanoma) was over 100 µM. The TGI (SK-MEL-5 melanoma) was over 100 µM, the TGI (SK-OV-3 ovarian) was over 100 µM and the TGI (SN12C renal) was over 100 µM. For the same molecule, the TGI (SNB-19 CNS) was over 100 µM, the TGI (SNB-75 CNS) was over 100 µM and the TGI (SR leukemia) was over 100 µM. It also gave a TGI (SW-620 colon) of over 100 µM, a TGI (TK-10 renal) of over 100 µM and a TGI (U251 CNS) of over 100 µM. For the same molecule, the TGI (UACC-257 melanoma) was over 100 µM, the TGI (UACC-62 melanoma) was over 100 µM and the TGI (UO-31 renal) was over 100 µM. It also gave a TGI (XF 498 CNS) of over 100 µM.
